This passage reports IC50 results from patent publication US20200291018A1, “TAM KINASE INHIBITORS” (SYROS PHARMACEUTICALS, INC., priority 2017, published 2020).

For one assay, the target named is T1, FLT3 (Homo sapiens, UniProt P36888).
T1 sequence (P36888 27-993): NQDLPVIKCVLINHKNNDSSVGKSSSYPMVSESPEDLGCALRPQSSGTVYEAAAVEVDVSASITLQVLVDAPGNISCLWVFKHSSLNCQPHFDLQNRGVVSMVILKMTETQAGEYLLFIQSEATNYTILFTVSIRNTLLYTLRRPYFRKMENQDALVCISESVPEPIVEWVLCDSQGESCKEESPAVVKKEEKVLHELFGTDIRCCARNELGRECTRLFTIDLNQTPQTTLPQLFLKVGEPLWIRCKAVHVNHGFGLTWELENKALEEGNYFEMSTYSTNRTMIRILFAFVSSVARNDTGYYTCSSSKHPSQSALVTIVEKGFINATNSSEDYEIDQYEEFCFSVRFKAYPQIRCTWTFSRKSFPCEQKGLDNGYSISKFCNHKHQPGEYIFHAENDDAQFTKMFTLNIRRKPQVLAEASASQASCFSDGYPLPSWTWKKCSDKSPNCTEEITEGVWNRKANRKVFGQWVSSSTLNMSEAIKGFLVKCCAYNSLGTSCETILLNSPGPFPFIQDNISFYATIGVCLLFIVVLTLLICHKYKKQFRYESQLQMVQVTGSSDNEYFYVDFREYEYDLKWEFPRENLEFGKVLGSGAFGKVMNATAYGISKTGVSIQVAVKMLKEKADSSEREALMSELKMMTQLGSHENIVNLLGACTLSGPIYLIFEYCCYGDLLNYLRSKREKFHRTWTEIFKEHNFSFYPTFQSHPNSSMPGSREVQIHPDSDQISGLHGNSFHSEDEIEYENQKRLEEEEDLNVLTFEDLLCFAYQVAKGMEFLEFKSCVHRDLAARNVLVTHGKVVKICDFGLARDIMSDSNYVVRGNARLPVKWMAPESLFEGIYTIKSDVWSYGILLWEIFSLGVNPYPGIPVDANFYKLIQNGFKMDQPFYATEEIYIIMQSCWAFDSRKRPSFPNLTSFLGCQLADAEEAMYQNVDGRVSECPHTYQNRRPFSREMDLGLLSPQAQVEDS
As to the kind of experiment: TR-FRET kinase activity assay, FLT3. The format is biochemical. The settings on record: ATP at Km, 60 minutes. The method in brief: (§1)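 Steps: compound, enzyme and labeled peptide combined at RT (50 mM HEPES pH 7.5, 10 mM MgCl2, 1 mM DTT); ATP added at Km; 60 min reaction; EDTA quench; Eu-antibody development 30 min in darkness; TR-FRET measured and IC50 fitted.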

A further assay concerns the target T2, AXL (Homo sapiens, UniProt P30530).
T2 sequence (P30530 26-894): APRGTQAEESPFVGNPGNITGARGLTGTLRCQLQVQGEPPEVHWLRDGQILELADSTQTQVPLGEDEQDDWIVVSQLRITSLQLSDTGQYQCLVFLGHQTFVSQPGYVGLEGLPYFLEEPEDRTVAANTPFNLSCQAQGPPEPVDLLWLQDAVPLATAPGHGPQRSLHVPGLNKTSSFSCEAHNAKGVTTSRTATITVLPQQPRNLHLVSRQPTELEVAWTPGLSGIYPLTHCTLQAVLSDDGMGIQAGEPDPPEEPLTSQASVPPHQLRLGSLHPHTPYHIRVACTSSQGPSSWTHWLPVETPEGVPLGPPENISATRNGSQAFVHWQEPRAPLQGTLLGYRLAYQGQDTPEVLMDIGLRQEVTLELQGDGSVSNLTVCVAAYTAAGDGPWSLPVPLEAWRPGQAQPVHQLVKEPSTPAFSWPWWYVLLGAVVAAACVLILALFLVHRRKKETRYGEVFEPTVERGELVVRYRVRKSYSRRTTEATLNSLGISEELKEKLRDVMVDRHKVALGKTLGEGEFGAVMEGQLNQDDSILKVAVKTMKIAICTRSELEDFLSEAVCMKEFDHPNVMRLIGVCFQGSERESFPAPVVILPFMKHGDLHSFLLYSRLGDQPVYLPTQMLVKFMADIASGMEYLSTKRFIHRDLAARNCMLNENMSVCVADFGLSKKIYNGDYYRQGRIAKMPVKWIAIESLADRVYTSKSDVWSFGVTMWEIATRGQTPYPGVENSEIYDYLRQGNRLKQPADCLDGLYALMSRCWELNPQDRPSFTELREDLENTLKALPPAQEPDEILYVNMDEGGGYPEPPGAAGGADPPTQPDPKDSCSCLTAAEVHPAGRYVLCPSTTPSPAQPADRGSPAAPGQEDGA
Description: TR-FRET kinase activity assay, AXL. The settings on record: ATP at Km, 60 minutes. Type of assay: biochemical. The method in brief: as §1
In general terms: TR-FRET usually uses a lanthanide donor and a delayed reading to cut background.

Each structure is given as a SMILES string. Bounds are passed on as bounds.

In the case of `C[C@@H](CC(F)(F)F)Nc1ncc2c(OC3CC(C)(C)N(C[C@@H]4CCCO4)C(C)(C)C3)ncc([C@H]3CC[C@H](O)CC3)c2n1` [Compound 418], the IC50 against FLT3 and against AXL was ≤ 100 nM each time.

Take `COC[C@H](C)Nc1ncc2c(O[C@H]3C[C@H](C(=O)N4CCN(C)CC4)C3)ncc([C@H]3CC[C@H](O)CC3)c2n1` [Compound 419]: the 50% inhibitory concentration (IC50) against FLT3 was 1000 to 10000 nM; against AXL, 100 to 1000 nM.

As for `C[C@@H](CC(F)(F)F)Nc1ncc2c(O[C@H]3C[C@H](CN4CCOCC4)C3)ncc([C@H]3CC[C@H](O)CC3)c2n1` [Compound 420], the figures for the 50% inhibitory concentration (IC50) against FLT3 and against AXL were 100 to 1000 nM and ≤ 100 nM, respectively.

As for `C[C@@H](CC(F)(F)F)Nc1ncc2c(O[C@@H]3C[C@H]4CC[C@@H](C3)N4C[C@@H]3CCCO3)ncc([C@H]3CC[C@H](O)CC3)c2n1` [Compound 421], the half-maximal inhibitory concentration (IC50) against FLT3 and at AXL was ≤ 100 nM throughout.

For `C[C@@H](CC(F)(F)F)Nc1ncc2c(O[C@H]3C[C@H](N4CCOCC4)C3)ncc([C@H]3CC[C@H](O)CC3)c2n1` [Compound 422], the half-maximal inhibitory concentration (IC50) against FLT3 is 100 to 1000 nM; against AXL, ≤ 100 nM.

As for `C[C@@H](CC(F)(F)F)Nc1ncc2c(O[C@H]3C[C@@H](O)C3)ncc([C@H]3CC[C@](C)(O)CC3)c2n1` [Compound 423], the half-inhibitory concentration (IC50) against FLT3 is 100 to 1000 nM; against AXL it was ≤ 100 nM.

For the compound `C[C@@H](CC(F)(F)F)Nc1ncc2c(O[C@H]3C[C@@H](O)C3)ncc([C@H]3CC[C@@](C)(O)CC3)c2n1` [Compound 424], the results for the IC50 against FLT3 and against AXL were 100 to 1000 nM and ≤ 100 nM, respectively.

Consider `COC[C@H](C)Nc1ncc2c(O[C@H]3C[C@@H](O)C3)ncc(-c3ccnnc3)c2n1` [Compound 425], for which the concentration for half-maximal inhibition (IC50) against FLT3 and against AXL was 1000 to 10000 nM each time.

As to `COC[C@H](C)Nc1ncc2c(O[C@H]3C[C@@H](O)C3)ncc([C@H]3CC[C@](C)(O)CC3)c2n1` [Compound 426], the 50% inhibitory concentration (IC50) against FLT3 lay within 1000 to 10000 nM; on AXL, 100 to 1000 nM.

As for `COC[C@H](C)Nc1ncc2c(O[C@H]3C[C@@H](O)C3)ncc([C@H]3CC[C@@](C)(O)CC3)c2n1` [Compound 427], the figures for the IC50 against FLT3 and on AXL were > 10000 nM and 100 to 1000 nM, respectively.

For the compound `C[C@@H](CC(F)F)Nc1ncc2c(O[C@H]3C[C@@H](O)C3)ncc([C@H]3CC[C@H](O)CC3)c2n1` [Compound 428], the results for the half-maximal inhibitory concentration (IC50) against FLT3 and against AXL were 100 to 1000 nM and ≤ 100 nM, respectively.

`C[C@@H](CC(F)(F)F)Nc1ncc2c(O[C@H]3C[C@@](C)(O)C3)ncc([C@H]3CC[C@H](O)CC3)c2n1` [Compound 429]: the IC50 against FLT3 was 100 to 1000 nM; at AXL, ≤ 100 nM.

Broadly, the IC50 is the concentration that inhibits the measured activity by half. A higher IC50 goes with weaker potency in that assay.
